Structures can show the parent of a compound that is named as a salt.
Assays:
MAO-A = molecular target: T1, MAO-A (Homo sapiens, UniProt P21397); assay: Monoamine oxidase assay, MAO-A (kynuramine to 4-hydroxyquinoline fluorescence); assay type: biochemical; details: Ki (IC50) range class; human recombinant MAO-A, kynuramine substrate
T1 construct: purchased Sigma Aldrich
T1 sequence (P21397 1-527): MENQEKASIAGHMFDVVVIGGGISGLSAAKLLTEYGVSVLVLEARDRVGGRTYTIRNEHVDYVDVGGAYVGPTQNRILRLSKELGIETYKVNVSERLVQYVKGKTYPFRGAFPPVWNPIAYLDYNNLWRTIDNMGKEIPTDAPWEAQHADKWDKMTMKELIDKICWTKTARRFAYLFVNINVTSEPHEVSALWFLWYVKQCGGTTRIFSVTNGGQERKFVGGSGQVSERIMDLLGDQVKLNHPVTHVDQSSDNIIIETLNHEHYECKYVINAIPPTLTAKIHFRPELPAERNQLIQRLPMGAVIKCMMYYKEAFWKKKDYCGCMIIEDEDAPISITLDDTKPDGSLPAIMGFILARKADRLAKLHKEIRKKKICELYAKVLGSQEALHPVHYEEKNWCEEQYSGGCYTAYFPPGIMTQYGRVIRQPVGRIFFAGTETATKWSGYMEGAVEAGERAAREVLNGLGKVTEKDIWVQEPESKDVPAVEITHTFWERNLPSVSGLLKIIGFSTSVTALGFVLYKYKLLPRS
From the text: (§1) Human recombinant monoamine oxidase proteins MAO-A and MAO-B were purchased from Sigma Aldrich. […] In order to monitor MAO enzymatic activities and/or their inhibition rate by inhibitor(s) of interest, a fluorescent-based (inhibitor)-screening assay was set up. 3-(2-Aminophenyl)-3-oxopropanamine (kynuramine dihydrobromide, Sigma Aldrich), a non fluorescent compound was chosen as a substrate. Kynuramine is a non-specific substrate for both MAOs activities. While undergoing oxidative deamination by MAO activities, kynuramine is converted into 4-hydroxyquinoline (4-HQ), a resulting fluorescent product.
(§2) The monoamine oxidase activity was estimated by measuring the conversion of kynuramine into 4-hydroxyquinoline. Assays were conducted in 96-well black plates with clear bottom (Corning) in a final volume of 100 μL. The assay buffer was 100 mM HEPES, pH 7.5. Each experiment was performed in triplicate within the same experiment.
(§3) The oxidative deamination of the substrate was stopped by adding 50 μL (v/v) of NaOH 2N.
(§4) The Ki of each inhibitor was measure at Vmax/2.

MAO-B = molecular target: T2, MAO-B (Homo sapiens, UniProt P27338); assay: Monoamine oxidase assay, MAO-B (kynuramine to 4-hydroxyquinoline fluorescence); assay type: biochemical; details: Ki (IC50) range class; human recombinant MAO-B, kynuramine substrate
T2 construct: purchased Sigma Aldrich
T2 sequence (P27338 1-520): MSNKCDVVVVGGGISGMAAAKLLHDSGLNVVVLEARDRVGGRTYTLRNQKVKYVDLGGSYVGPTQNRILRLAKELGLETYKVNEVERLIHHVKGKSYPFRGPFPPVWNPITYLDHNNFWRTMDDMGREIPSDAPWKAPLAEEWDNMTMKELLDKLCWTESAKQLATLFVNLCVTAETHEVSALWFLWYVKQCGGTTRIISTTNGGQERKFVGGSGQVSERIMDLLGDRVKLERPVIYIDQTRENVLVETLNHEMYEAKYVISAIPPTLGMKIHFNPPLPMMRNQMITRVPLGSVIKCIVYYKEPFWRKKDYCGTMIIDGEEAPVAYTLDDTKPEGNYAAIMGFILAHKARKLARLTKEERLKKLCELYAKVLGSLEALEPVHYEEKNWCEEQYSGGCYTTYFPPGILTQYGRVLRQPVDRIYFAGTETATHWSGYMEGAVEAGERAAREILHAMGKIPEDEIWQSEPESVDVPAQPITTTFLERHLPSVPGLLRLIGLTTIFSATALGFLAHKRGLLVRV
From the text: as §1, §2, §3, §4

LSD1 = LSD1 (Homo sapiens, UniProt O60341); assay: LSD1 inhibition assay (Amplex Red peroxide/peroxidase-coupled, di-methylated H3-K4 peptide substrate)

Row | Ki (MAO-A) | Ki (MAO-B) | Ki (LSD1) | SMILES
1 | 5000 to 40000 nM | 100 to 500 nM | 10 to 100 nM | NC(=O)CN[C@@H]1C[C@H]1c1ccc(OCc2cccc(F)c2)cc1 (relative stereo) [Example 5, 2-((trans)-2-(4-(3-fluorobenzyloxy)phenyl)cyclopropylamino)acetamide hydrochloride]
2 | 5000 to 40000 nM | 100 to 500 nM | 100 to 500 nM | NC(=O)CN[C@@H]1C[C@H]1c1ccc(-c2cccc(C(F)(F)F)c2)cc1 (relative stereo) [Example 11, 2-((trans)-2-(3′-(trifluoromethyl)biphenyl-4-yl)cyclopropylamino)acetamide]
3 | > 40000 nM | 100 to 500 nM | 100 to 500 nM | NC(=O)CN[C@@H]1C[C@H]1c1ccc(OCc2ccc(Cl)cc2)cc1 (relative stereo) [Example 7, 2-((trans)-2-(4-(4-chlorobenzyloxy)phenyl)cyclopropylamino)acetamide hydrochloride]
4 | > 40000 nM | 100 to 500 nM | 100 to 500 nM | NC(=O)CN[C@H]1C[C@@H]1c1ccc(-c2ccc(-c3ccccc3)cc2)cc1 (stereo in doubt) [Example 12, 2-(2-[1,1′;4′,1″]Terphenyl-4″-yl-cyclopropylamino)acetamide]
5 | 500 to 5000 nM | 100 to 500 nM | 10 to 100 nM | N#Cc1cccc(COc2ccc([C@@H]3C[C@H]3NCC(N)=O)cc2)c1 (relative stereo) [Example 2, 2-((trans)-2-(4-(3-cyanobenzyloxy)phenyl)cyclopropylamino)acetamide hydrochloride]
6 | > 40000 nM | 100 to 500 nM | 10 to 100 nM | NC(=O)CN[C@@H]1C[C@H]1c1ccc(OCc2cccc(Cl)c2)cc1 (relative stereo) [Example 6, 2-((trans)-2-(4-(3-chlorobenzyloxy)phenyl)cyclopropylamino)acetamide hydrochloride]
7 | > 40000 nM | 100 to 500 nM | 100 to 500 nM | NC(=O)CN[C@@H]1C[C@H]1c1ccc(OCc2ccc(F)cc2)cc1 (relative stereo) [Example 4, 2-((trans)-2-(4-(4-fluorobenzyloxy)phenyl)cyclopropylamino)acetamide hydrochloride]
8 | 5000 to 40000 nM | 100 to 500 nM | 10 to 100 nM | N#Cc1ccc(COc2ccc([C@@H]3C[C@H]3NCC(N)=O)cc2)cc1 (relative stereo) [Example 1, 2-((trans)-2-(4-(4-cyanobenzyloxy)phenyl)cyclopropylamino)acetamide hydrochloride]
9 | 5000 to 40000 nM | 100 to 500 nM | 10 to 100 nM | NC(=O)CN[C@@H]1C[C@H]1c1ccc(OCc2cccc(Br)c2)cc1 (relative stereo) [Example 8, 2-((trans)-2-(4-(3-bromobenzyloxy)phenyl)cyclopropylamino)acetamide]
10 | 500 to 5000 nM | 500 to 5000 nM | 10 to 100 nM | NC(=O)CN[C@@H]1C[C@H]1c1ccc(-c2ccc(Cl)cc2)nc1 (relative stereo) [Example 20, 2-((trans)-2-(6-(4-chlorophenyl)pyridin-3-yl)cyclopropylamino)acetamide]
11 | 5000 to 40000 nM | 100 to 500 nM | 10 to 100 nM | NC(=O)CN[C@@H]1C[C@H]1c1ccc(OCc2cc(F)cc(F)c2)cc1 (relative stereo) [Example 9, 2((trans)-2-(4-(3,5-difluorobenzyloxy)phenyl)cyclopropylamino)acetamide]
12 | 5000 to 40000 nM | 100 to 500 nM | 100 to 500 nM | NC(=O)CN[C@@H]1C[C@H]1c1ccc(OCc2ccccc2)cc1 (relative stereo) [Example 3, 2-((trans)-2-(4-(benzyloxy)phenyl)cyclopropylamino)acetamide]
13 | 5000 to 40000 nM | 100 to 500 nM | 10 to 100 nM | NC(=O)CN[C@@H]1C[C@H]1c1ccc(OCCc2ccccc2)cc1 (relative stereo) [Example 10, 2-((trans)-2-(4-phenethoxyphenyl)cyclopropylamino)acetamide]

Source: patent publication US8946296B2, “Substituted heteroaryl- and aryl-cyclopropylamine acetamides and their use” (Oryzon Genomics S.A., priority 2009, dated 2015)
